# Reference: PubChem BioAssay (NCI)
#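 Cultured in 96-well plates, cells were exposed to test compound for 48 hours across five concentrations. TGI denotes the concentration required for complete inhibition of growth.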
# Experiments:
# Assay in all cases: NCI tumour cell line growth inhibition, 48 h
# SN12C renal = tested on: SN12C renal
# SK-MEL-2 melanoma = tested on: SK-MEL-2 melanoma
# PC-3 prostate = tested on: PC-3 prostate
# SW-620 colon = tested on: SW-620 colon
# SNB-75 CNS = tested on: SNB-75 CNS
# DU-145 prostate = tested on: DU-145 prostate
# UACC-62 melanoma = tested on: UACC-62 melanoma
# CAKI-1 renal = tested on: CAKI-1 renal
# HOP-62 NSCLC = tested on: HOP-62 NSCLC
# HCT-116 colon = tested on: HCT-116 colon
# SF-268 CNS = tested on: SF-268 CNS
# RPMI-8226 leukemia = tested on: RPMI-8226 leukemia
# M14 melanoma = tested on: M14 melanoma
# T-47D breast = tested on: T-47D breast
# BT-549 breast = tested on: BT-549 breast
# SF-539 CNS = tested on: SF-539 CNS
# RXF 393 renal = tested on: RXF 393 renal
# A549 NSCLC = tested on: A549 NSCLC
# NCI-H23 lung = tested on: NCI-H23 lung
# LOX IMVI melanoma = tested on: LOX IMVI melanoma
# OVCAR-4 ovarian = tested on: OVCAR-4 ovarian
# MDA-N = tested on: MDA-N
# IGROV1 ovarian = tested on: IGROV1 ovarian
# ACHN renal = tested on: ACHN renal
# OVCAR-3 ovarian = tested on: OVCAR-3 ovarian
# MCF7 breast = tested on: MCF7 breast
# UACC-257 melanoma = tested on: UACC-257 melanoma
# K-562 leukemia = tested on: K-562 leukemia
# MDA-MB-435 = tested on: MDA-MB-435
# SF-295 CNS = tested on: SF-295 CNS
# U251 CNS = tested on: U251 CNS
# HT29 colon = tested on: HT29 colon
# NCI-H522 lung = tested on: NCI-H522 lung
# HOP-92 NSCLC = tested on: HOP-92 NSCLC
# SK-OV-3 ovarian = tested on: SK-OV-3 ovarian
# HCC-2998 colon = tested on: HCC-2998 colon
# NCI/ADR-RES ovarian = tested on: NCI/ADR-RES ovarian
# HS 578T breast = tested on: HS 578T breast
# HCT-15 colon = tested on: HCT-15 colon
# SK-MEL-28 melanoma = tested on: SK-MEL-28 melanoma
# A498 renal = tested on: A498 renal
# SNB-19 CNS = tested on: SNB-19 CNS
# OVCAR-8 ovarian = tested on: OVCAR-8 ovarian
# SK-MEL-5 melanoma = tested on: SK-MEL-5 melanoma
# 786-0 renal = tested on: 786-0 renal
# NCI-H460 lung = tested on: NCI-H460 lung
# NCI-H226 lung = tested on: NCI-H226 lung
# EKVX NSCLC = tested on: EKVX NSCLC
# COLO 205 colon = tested on: COLO 205 colon
# OVCAR-5 ovarian = tested on: OVCAR-5 ovarian
# MDA-MB-231 breast = tested on: MDA-MB-231 breast
# KM12 colon = tested on: KM12 colon
# UO-31 renal = tested on: UO-31 renal
# TK-10 renal = tested on: TK-10 renal
# MOLT-4 leukemia = tested on: MOLT-4 leukemia
# CCRF-CEM leukemia = tested on: CCRF-CEM leukemia
# SR leukemia = tested on: SR leukemia
smiles,measurement,setting,value
C1CCSCCCCSCCCCSCCCCSC1,TGI,SN12C renal,> 100 µM
same,TGI,SK-MEL-2 melanoma,> 100 µM
same,TGI,PC-3 prostate,> 100 µM
same,TGI,SW-620 colon,> 100 µM
same,TGI,SNB-75 CNS,> 100 µM
same,TGI,DU-145 prostate,> 100 µM
same,TGI,UACC-62 melanoma,> 100 µM
same,TGI,CAKI-1 renal,> 100 µM
same,TGI,HOP-62 NSCLC,> 100 µM
same,TGI,HCT-116 colon,> 100 µM
same,TGI,SF-268 CNS,> 100 µM
same,TGI,RPMI-8226 leukemia,> 100 µM
same,TGI,M14 melanoma,> 100 µM
same,TGI,T-47D breast,> 100 µM
same,TGI,BT-549 breast,> 100 µM
same,TGI,SF-539 CNS,> 100 µM
same,TGI,RXF 393 renal,> 100 µM
same,TGI,A549 NSCLC,> 100 µM
same,TGI,NCI-H23 lung,> 100 µM
same,TGI,LOX IMVI melanoma,> 100 µM
same,TGI,OVCAR-4 ovarian,> 100 µM
same,TGI,MDA-N,> 100 µM
same,TGI,IGROV1 ovarian,> 100 µM
same,TGI,ACHN renal,> 100 µM
same,TGI,OVCAR-3 ovarian,> 100 µM
same,TGI,MCF7 breast,> 100 µM
same,TGI,UACC-257 melanoma,> 100 µM
same,TGI,K-562 leukemia,> 100 µM
same,TGI,MDA-MB-435,> 100 µM
same,TGI,SF-295 CNS,> 100 µM
same,TGI,U251 CNS,> 100 µM
same,TGI,HT29 colon,> 100 µM
same,TGI,NCI-H522 lung,> 100 µM
same,TGI,HOP-92 NSCLC,> 100 µM
same,TGI,SK-OV-3 ovarian,> 100 µM
same,TGI,HCC-2998 colon,> 100 µM
same,TGI,NCI/ADR-RES ovarian,> 100 µM
same,TGI,HS 578T breast,> 100 µM
same,TGI,HCT-15 colon,> 100 µM
same,TGI,SK-MEL-28 melanoma,> 100 µM
same,TGI,A498 renal,> 100 µM
same,TGI,SNB-19 CNS,> 100 µM
same,TGI,OVCAR-8 ovarian,> 100 µM
same,TGI,SK-MEL-5 melanoma,> 100 µM
same,TGI,786-0 renal,> 100 µM
same,TGI,NCI-H460 lung,> 100 µM
same,TGI,NCI-H226 lung,> 100 µM
same,TGI,EKVX NSCLC,> 100 µM
same,TGI,COLO 205 colon,> 100 µM
same,TGI,OVCAR-5 ovarian,> 100 µM
same,TGI,MDA-MB-231 breast,> 100 µM
same,TGI,KM12 colon,> 100 µM
same,TGI,UO-31 renal,> 100 µM
same,TGI,TK-10 renal,> 100 µM
CCOC(=O)c1[nH]cc(C)c1-c1ccn(-c2ccccc2)c1,TGI,SN12C renal,> 100 µM
same,TGI,SK-MEL-2 melanoma,> 100 µM
same,TGI,PC-3 prostate,> 100 µM
same,TGI,SW-620 colon,> 100 µM
same,TGI,SNB-75 CNS,49.5 µM
same,TGI,DU-145 prostate,> 100 µM
same,TGI,UACC-62 melanoma,> 100 µM
same,TGI,CAKI-1 renal,> 100 µM
same,TGI,HOP-62 NSCLC,> 100 µM
same,TGI,HCT-116 colon,> 100 µM
same,TGI,SF-268 CNS,> 100 µM
same,TGI,MOLT-4 leukemia,65.2 µM
same,TGI,M14 melanoma,> 100 µM
same,TGI,T-47D breast,> 100 µM
same,TGI,CCRF-CEM leukemia,79.3 µM
same,TGI,BT-549 breast,> 100 µM
same,TGI,SF-539 CNS,> 100 µM
same,TGI,RXF 393 renal,> 100 µM
same,TGI,A549 NSCLC,> 100 µM
same,TGI,NCI-H23 lung,> 100 µM
same,TGI,SR leukemia,72.4 µM
same,TGI,LOX IMVI melanoma,> 100 µM
same,TGI,OVCAR-4 ovarian,> 100 µM
same,TGI,MDA-N,> 100 µM
same,TGI,IGROV1 ovarian,55.9 µM
same,TGI,ACHN renal,> 100 µM
same,TGI,OVCAR-3 ovarian,> 100 µM
same,TGI,MCF7 breast,> 100 µM
same,TGI,UACC-257 melanoma,> 100 µM
same,TGI,K-562 leukemia,51 µM
same,TGI,MDA-MB-435,> 100 µM
same,TGI,SF-295 CNS,> 100 µM
same,TGI,U251 CNS,> 100 µM
same,TGI,HT29 colon,> 100 µM
same,TGI,NCI-H522 lung,71.2 µM
same,TGI,HOP-92 NSCLC,82.8 µM
same,TGI,SK-OV-3 ovarian,> 100 µM
same,TGI,HCC-2998 colon,> 100 µM
same,TGI,NCI/ADR-RES ovarian,> 100 µM
same,TGI,HS 578T breast,> 100 µM
same,TGI,HCT-15 colon,> 100 µM
same,TGI,SK-MEL-28 melanoma,> 100 µM
same,TGI,A498 renal,> 100 µM
same,TGI,OVCAR-8 ovarian,> 100 µM
same,TGI,SK-MEL-5 melanoma,63.9 µM
same,TGI,786-0 renal,> 100 µM
same,TGI,NCI-H460 lung,> 100 µM
same,TGI,NCI-H226 lung,> 100 µM
same,TGI,EKVX NSCLC,> 100 µM
same,TGI,COLO 205 colon,> 100 µM
same,TGI,OVCAR-5 ovarian,> 100 µM
same,TGI,KM12 colon,> 100 µM
same,TGI,UO-31 renal,> 100 µM
same,TGI,TK-10 renal,> 100 µM
